Experimental data published in patent US10206909B2, “3-(1H-pyrrolo[2,3-B]pyridin-2-yl)-1H-pyrazolo[4,3-B]pyridines and therapeutic uses thereof” (Samumed, LLC, priority 2015, dated 2019).

Key:
[1] = tested on: primary human fibroblasts derived from IPF patients (LL29 cells); assay: Inhibition of the fibrotic process: αSMA staining in TGF-β1 treated fibroblasts; assay type: cell-based; conditions: Fibroblast; for EC50: 96 h, LL29 cells, TGF-β1 20 ng/mL, 4 days, % αSMA positive cells
In short: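 IPF-derived LL29 fibroblasts in F12 with 1% FBS dosed with compound (11-point, 10 μM to 1.87 nM, 0.1% DMSO), then 20 ng/mL TGF-β1 after 1 h, and cultured 4 days at 37 °C. αSMA-positive cell fraction imaged after excluding SYTOX-positive cells, normalized to TGF-β1/DMSO wells; EC50 by non-linear regression, % inhibition at 10 μM if EC50 >10 μM.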

[2] = tested on: primary human mesenchymal stem cells (hMSCs); assay: Chondrogenesis induction in mesenchymal stem cells (nodule count); assay type: cell-based; conditions: 144 h, 6 days; for Emax: relative to TGF-β3 (10 ng/mL) positive control, read-out: Max. Activity as % TGF-β3 activity
Experimental: Representative compounds were screened using primary human mesenchymal stem cells (hMSCs) to determine their ability to induce chondrogenesis (process by which cartilage is developed).
Human Mesenchymal Stem Cell Culture: Primary human mesenchymal stem cells (hMSCs) were purchased from Lonza (Walkersville, Md.) and expanded in Mesenchymal Stem Cell Growth Media (Lonza). Cells between passage 3 and 6 were used for the experiments.
Compound Screening: Each compound was dissolved in DMSO as a 10 mM stock and used to prepare compound source plates. Serial dilution (1:3, 6-point dose-response curves from 2700 nM to 10 nM) and compound transfer was performed using the ECHO 550 (Labcyte, Sunnyvale, Calif.) into 96-well clear bottom assay plates (Greiner Bio-One) with appropriate DMSO backfill for a final DMSO concentration of 0.03%. hMSCs were plated at 20,000 cells/well in 250 μL/well Incomplete Chondrogenic Induction Medium (Lonza; DMEM, dexamethasone, ascorbate, insulin-transferrin-selenium [ITS supplement], gentamycin-amphotericin [GA-1000], sodium pyruvate, proline and L-glutamine). TGF-β3 (10 ng/mL) was used as a positive control for differentiation while negative control wells were treated with 75 nL DMSO for normalization and calculating EC50 values. Cells were incubated at 37° C. and 5% CO2 for 6 days. To image chondrogenic nodules, the cells were fixed using 4% formaldehyde (Electron Microscopy Sciences), and stained with 2 μg/mL Rhodamine B (Sigma-Aldrich) and 20 μM Nile Red (Sigma-Aldrich) [Johnson K., et. al, A Stem Cell-Based Approach to Cartilage Repair, Science, (2012). 336(6082), 717-721]. The nodules imaged (4 images per well at 4× magnification) by excitation at 531 nm and emission at 625 nm and quantified using the CellInsight CX5 (Thermo Scientific). Number of nodules in each well was normalized to the average of 3 DMSO treated wells on the same plate using Excel (Microsoft Inc.). The normalized averages (fold change over DMSO) of 3 replicate wells for each compound concentration were calculated. Due to solubility limitations of some of the compounds, curve fitting was incomplete leading to inaccurate EC50 determinations.
Using TGF-β3 as a positive control, the concentration of representative compounds required to induce 50% levels of chondrogenesis is reported. In addition, the maximum activity of each compound and the respective dose that each compound reached maximum chondrogenesis activity is reported.

EC50 ([2]; concentration required to induce 50% levels of chondrogenesis vs TGF-β3, read-out: Conc (nM) of 50% TGF-β3 activity) [nM] | Compound | EC50 [1] [nM] | inhibition at 10 µM ([1]; at 10 μM, given where EC50 >10 μM, LL29, αSMA, read-out: percent inhibition at 10 μM) [%] | Emax [2] [%]
900 | Cc1ccncc1-c1ccc2[nH]nc(-c3cc4c(N5CCCCC5)ccnc4[nH]3)c2n1 [Compound 173, 5-(4-Methylpyridin-3-yl)-3-(4-(piperidin-1-yl)-1H-pyrrolo[2,3-b]pyridin-2-yl)-1H-pyrazolo[4,3-b]pyridine] | > 10000 | 10.6 | 101
 | CN(C)Cc1cncc(-c2ccc3[nH]nc(-c4cc5c(-c6ccccc6F)ccnc5[nH]4)c3n2)c1 [Compound 69, 1-(5-(3-(4-(2-Fluorophenyl)-1H-pyrrolo[2,3-b]pyridin-2-yl)-1H-pyrazolo [4,3-b]pyridin-5-yl)pyridin-3-yl)-N,N-dimethylmethanamine] | 2000 |  | 44
